Experimental findings from patent US20240270744A1 (Hoffmann-La Roche Inc., priority 2021, published 2024) are described below.

One assay concerns the target h-GABA-A α2β2γ1 (Homo sapiens (Human), UniProt P47869+Q8N1C3). Briefly: Two-electrode voltage clamp electrophysiology in Xenopus oocytes expressing GABAA receptors. The format is cell-based. The note with it: α2β2γ1 GABAA receptor subtype expressing oocytes; reference PAMs. As for the experimental part: Xenopus laevis oocytes at maturation stages V-VI were used for the expression of cloned mRNA encoding GABAA receptor subunits. Oocytes ready for RNA micro-injection were bought from Ecocyte, Castrop-Rauxel, Germany and stored in modified Barth's medium (composition in mM: NaCl 88, KCl 1, NaHCO3 2.4, HEPES 10, MgSO4 0.82, CaNO3 0.33, CaCl2 0.33, pH=7.5) at 20° C. until the experiment.
Oocytes were plated in 96-well plates for microinjection using the Roboinject automated instrument (MultiChannelSystems, Reutlingen, Germany). Approximately 50 nL of an aqueous solution containing the RNA transcripts for the subunits of the desired GABAA receptor subtype was injected into each oocyte. […] Oocytes were kept in modified Barth's medium (composition in mM: NaCl 88, KCl 1, NaHCO3 […], HEPES 10, MgSO4 0.82, CaNO3 0.33, CaCl2 0.33, pH=7.5) at 20° C. until the experiment.
Electrophysiological experiments were performed using the Roboocyte instrument (MultiChannelSystems, Reutlingen, Germany) on days 3 to 5 after the micro-injection of mRNA. During the experiment the oocytes were constantly superfused by a solution containing (in mM) NaCl 90, KCl 1, HEPES 5, MgCl2 1, CaCl2 1 (pH 7.4). Oocytes were impaled by two glass microelectrodes (resistance: […]) which were filled with a solution containing KCl 1M+K-acetate 1.5 M and voltage-clamped to −80 mV. The recordings were performed at room temperature using the Roboocyte two-electrode voltage clamp system (Multichannelsystem). After an initial equilibration period of 1.5 min GABA was added for 1.5 min at a concentration evoking approximately 20% of a maximal current response (EC20). After another rest interval of 2.5 min GABA was again added evoking a response of similar amplitude and shape. […] Current traces were recorded at a digitization rate of 10 Hz during and shortly before and after the GABA application.
Each compound and concentration was tested on at least 3 oocytes. Different oocytes were used for different compound concentrations.
For the analysis, the digitized current traces of the first and second GABA response were superimposed and, if necessary, rescaled to equal maximal amplitudes. The ratio between the two responses during the time interval of test compound application was calculated point by point. The extremum of the resulting “ratio trace” was taken as the efficacy (“Fold increase”) of the compound expressed as “% modulation of GABA EC20” (100*(Fold increase−1)).
Background: Two-electrode voltage clamp holds a large cell at a set potential and records current.

The target in assay [1] is human GABAA α1β3γ2 receptor (Homo sapiens (Human), UniProt P14867+P18507). Briefly: Radioligand binding assay, competition for [3H]Flumazenil, γ2-containing GABAA subtypes. How it is done:
The affinity of compounds at GABAA γ2 subunit-containing receptors was measured by competition for [^3H]Flumazenil (81.1 Ci/mmol; Roche) binding to HEK293F cells expressing human (transiently transfected) receptors of composition α1β3γ2.
Harvested pellets from HEK293F cells expressing the different GABAA γ2 receptor subtypes were resuspended in Mannitol Buffer pH 7.2-7.4 and processed as described above for the cells expressing the GABAA γ1 subunit-containing receptors.
Assays were incubated to equilibrium for 1 hour at 4° C. and harvested onto GF/C uni-filters (Packard) by filtration using a Packard harvester and washing with ice-cold wash buffer (50 mM Tris; pH 7.5). After anhydrousing, filter-retained radioactivity was detected by liquid scintillation counting. Ki values were calculated using Excel-Fit (Microsoft) and are the means of two determinations.

Assay [2] deals with human GABAA α5β2γ1 receptor (Homo sapiens (Human), UniProt P31644+Q8N1C3). Briefly: Radioligand binding assay, competition for [3H]RO7239181, γ1-containing GABAA subtypes. As to conditions: Table 1; [3H]RO7239181 displacement, membranes from HEK293F cells, mean of two determinations. As for the experimental part:
The affinity of compounds at GABAA γ1 subunit-containing receptors was measured by competition for [^3H]RO7239181 (67.3 Ci/mmol; Roche) binding to membranes from HEK293F cells (ThermoFisher R79007) expressing human (transiently transfected) receptors of composition α5β2γ1, α2β2γ1, α1β2γ1. For better protein expression of the α2 subunit-containing receptors, the 28 amino acid long signal peptide (Met1 to Ala28) of the human GABAA α2 subunit was substituted by the 31 amino acid long signal peptide (Met1 to Ser31) of human GABAA α5 subunit.
(§1) Harvested pellets from HEK293F cells expressing the different GABAA receptor subtypes were resuspended in Mannitol Buffer pH 7.2-7.4 (Mannitol 0.29 M, Triethylamine 10 mM, Acetic acid 10 mM, EDTA 1 mM plus protease inhibitors (20 tablets Complete, Roche Diagnostics Cat. No. 05 056 489 001 per liter)), washed two times and then resuspended at 1:10 to 1:15 dilution in the same buffer. Cell disruption was performed by stirring the suspension in a Parr vessel #4637 at 435 psi for 15 minutes, and then the suspensions were centrifuged at 1000×g for 15 minutes at 4° C. (Beckman Avanti J-HC: rotor JS-4.2). The supernatant (S1) was transferred in a 21 Schott flask and the pellet (P1) was resuspended with Mannitol Buffer up to 175 ml. The resuspended pellet was transferred into a 250 ml Corning centrifugal beaker and centrifuged at 1500×g for 10 minutes at 4° C. (Beckman Avanti J-HC: rotor JS-4.2). The supernatant (S1) was then transferred in the 21 Schott flask and the pellet was discarded. The supernatants (S1) were centrifuged in 500 ml Beckman polypropylene centrifugal beaker at 15′000×g for 30 minutes at 4° C. (Beckman Avanti J-20 XP; rotor JLA-10.500). The pellet (P2) was resuspended with Mannitol Buffer 1:1 and frozen at −80° C. The supernatant (S2) was centrifuged in 100 ml Beckman polypropylene centrifugal tubes at 48000×g for 50 minutes at 4° C. (Beckman Avanti J-20 XP; rotor JA-18). The supernatant (S3) was discarded and the pellet (P3) was resuspended with 1:1 Mannitol Buffer. The P2 and P3 protein concentration was determined with the BIORAD Standard assay method with bovine serum albumin as standard and measured on the NANO-Drop 1000. The membrane suspension was aliquots (500 μl per tube) and stored at −80° C. until required.
(§2) Membrane homogenates were resuspended and polytronised (Polytron PT1200E Kinematica AG) in Potassium Phosphate 10 mM, KCl 100 mM binding buffer at pH 7.4 to a final assay concentration determined with a previous experiment.
Radioligand binding assays were carried out in a volume of 200 μL (96-well plates) which contained 100 μL of cell membranes, [3H]RO7239181 at a concentration of 1.5 nM (α5β2γ1) or 20-30 nM (α1β2γ1, α2β2γ1) and the test compound in the range of [0.3-10000]=10^−9 M. Nonspecific binding was defined by 10×10^−6 (α5β2γ1) and 30×10^−6 M RO7239181 and typically represented less than 5% (α5β2γ1) and less than 20% (β1β2γ1, α2β2γ1) of the total binding. Assays were incubated to equilibrium for 1 hour at 4° C. and then, membranes were filtered onto unifilter (96-well white microplate with bonded GF/C filters preincubated 20-50 minutes in 0.3% Polyethylenimine) with a Filtermate 196 harvester (Packard BioScience) and washed 4 times with cold Potassium Phosphate 10 mM pH 7.4, KCl 100 mM binding buffer. After anhydrousing, filter-retained radioactivity was detected by liquid scintillation counting. Ki values were calculated using Excel-Fit (Microsoft) and are the means of two determinations.
Representative test results, obtained by the above described assay measuring binding affinity to HEK293 cells expressing human (h) receptors, are shown in the Table 1.

Assay [3] deals with human GABAA α2β2γ1 receptor (Homo sapiens (Human), UniProt P47869+Q8N1C3). The assay is described as above. The note with it: for LogSel: Log of the γ2/γ1 Ki ratio. As for the experimental part:
The affinity of compounds at GABAA γ1 subunit-containing receptors was measured by competition for [^3H]RO7239181 (67.3 Ci/mmol; Roche) binding to membranes from HEK293F cells (ThermoFisher R79007) expressing human (transiently transfected) receptors of composition α5β2γ1, α2β2γ1, α1β2γ1.
as §1, §2
Assays were incubated to equilibrium for 1 hour at 4° C. and then, membranes were filtered onto unifilter (96-well white microplate with bonded GF/C filters preincubated 20-50 minutes in 0.3% Polyethylenimine) with a Filtermate 196 harvester (Packard BioScience) and washed 4 times with cold Potassium Phosphate 10 mM pH 7.4, KCl 100 mM binding buffer. After anhydrousing, filter-retained radioactivity was detected by liquid scintillation counting. Ki values were calculated using Excel-Fit (Microsoft) and are the means of two determinations.

[4] abbreviates: Table 1, [3H]Flumazenil displacement, HEK293F cells, mean of two determinations, read-out: Ki h-GABAA α1β3γ2.
[5] abbreviates: Ki h-GABAA α2β2γ1, Table 1, [3H]RO7239181 displacement, membranes from HEK293F cells, mean of two determinations.
Where [6] appears, read: Table 1, Ki α1β3γ2 (nM)/Ki α2β2γ1 (nM).

Like-named read-outs stand apart in the source and are kept apart here.

Turning to `Cc1nnc2n1-c1ccc(Cl)cc1C(c1ccccc1Cl)=NC2` [Triazolam, reference compound], the “potentiation of the GABA-induced current” value on h-GABA-A α2β2γ1 is on record as about 60%.

What is called Ki is the dissociation constant of the complex between target and ligand, obtained from inhibition or displacement. Regarding `C[C@@H]1N=C(c2c(F)cccc2F)c2c(cnc(C(F)(F)F)c2Cl)-n2nc(C(=O)N[C@H]3C[C@H](O)C3)nc21` [Example 24, (7S)-11-chloro-9-(2,6-difluorophenyl)-N-trans-(3-hydroxycyclobutyl)-7-methyl-12-(trifluoromethyl)-2,3,5,8,13-pentazatricyclo[8.4.0.02,6]tetradeca-1(10),3,5,8,11,13-hexaene-4-carboxamide], the Ki was found to be 8.38 µM in assay [1] (setting [4]); 0.0028 µM in assay [2]; 0.0726 µM in assay [3] (setting [5]); 0.0726 µM in assay [3] (Ki h-GABAA α2β2γ1, Table 2, [3H]RO7239181 displacement). The “γ2/γ1 Selectivity Ratio” value in assay [3] (setting [6]) amounted to 115. Besides, the LogSel in assay [3] (Table 1) was found to be 2.06.

For `CN1C(=O)CN=C(c2ccccc2F)c2ccncc21` [RE-A, reference compound], the Ki is 0.179 µM in assay [1] and 10.2 µM in assay [3] (Ki h-GABAA α2β2γ1, Table 3, reference compounds comparison). Moreover, the “γ2/γ1 Selectivity Ratio” value in assay [3] (Table 3, Ki α1β3γ2/Ki α2β2γ1) is 0.018.

Take `Cc1cn2c(n1)[C@H](C)N=C(c1c(F)cccc1F)c1c-2cnc(C(F)(F)F)c1Cl` [Example 18, (7S)-11-chloro-9-(2,6-difluorophenyl)-4,7-dimethyl-12-(trifluoromethyl)-2,5,8,13-tetrazatricyclo[8.4.0.02,6]tetradeca-1(10),3,5,8,11,13-hexaene]: the Ki turned out to be 4.17 µM in assay [1] (setting [4]), 0.0059 µM in assay [2], 0.131 µM in assay [3] and 0.0545 µM in assay [3] (setting [5]). For the same compound, in assay [3] (setting [6]), the “γ2/γ1 Selectivity Ratio” value stood at 77. Moreover, the LogSel in assay [3] (Table 1) is 1.88.

For the compound `C[C@@H]1N=C(c2c(F)cccc2F)c2c(cnc(C(F)(F)F)c2Cl)-n2nc(C(=O)N[C@H]3C[C@@H](O)C3)nc21` [Example 23, (7S)-11-chloro-9-(2,6-difluorophenyl)-N-cis-(3-hydroxycyclobutyl)-7-methyl-12-(trifluoromethyl)-2,3,5,8,13-pentazatricyclo[8.4.0.02,6]tetradeca-1(10),3,5,8,11,13-hexaene-4-carboxamide], the Ki came out at 14.5 µM in assay [1] (setting [4]); 0.0097 µM in assay [2]; 0.101 µM in assay [3] (Table 1, [3H]RO7239181 displacement, membranes from HEK293F cells, mean of two determinations, read-out: Ki h-GABAA α2β2γ1); 0.101 µM in assay [3] (Table 2, [3H]RO7239181 displacement, read-out: Ki h-GABAA α2β2γ1). In addition, the “γ2/γ1 Selectivity Ratio” value in assay [3] (setting [6]) is given as 144. In addition, the LogSel in assay [3] (Table 1) is listed as 2.16.

As for `Cc1ncc2n1-c1ccc(Cl)cc1C(c1ccccc1F)=NC2` [Midazolam, reference compound], on h-GABA-A α2β2γ1, the “potentiation of the GABA-induced current” value is reported as about 60%.
